This note sets out measurements from patent publication US10301344B2, “L-proline complex of sodium-glucose cotransporter 2 inhibitor, monohydrate and crystal form thereof” (Jiangsu Hengrui Medicine Co., Ltd., priority 2014, dated 2019).

This data set in a line: Development form properties of the free compound and the complex (hygroscopicity, stability).

Turning to “1,6-anhydro-1-C-{4-chloro-3-[(3-fluoro-4-ethoxyphenyl)methyl]phenyl}-5-C-(hydroxymethyl)-β-L-idopyranose L-proline complex [complex of formula (I)]”, the “stability in comparison to the free compound” value is “improved stability”. For `CCOc1ccc(Cc2cc(C34OC[C@](CO)(O3)C(O)[C@H](O)C4O)ccc2Cl)cc1F` (stereo in doubt) [1,6-anhydro-1-C-{4-chloro-3-[(3-fluoro-4-ethoxyphenyl)methyl]phenyl}-5-C-(hydroxymethyl)-β-L-idopyranose], for the setting “free compound, background statement”, the hygroscopic properties entry was “hygroscopic”.
